From patent US7741327B2 (Hoffmann-La Roche Inc., priority 2008, dated 2010) come the findings set out here.

The target of the test is T1, Recombinant human liver GK1 (GST-GK) (Homo sapiens, UniProt P35557).
T1 construct: made in house; host or cells: E. coli
T1 sequence (P35557 1-466 isoform P35557-2): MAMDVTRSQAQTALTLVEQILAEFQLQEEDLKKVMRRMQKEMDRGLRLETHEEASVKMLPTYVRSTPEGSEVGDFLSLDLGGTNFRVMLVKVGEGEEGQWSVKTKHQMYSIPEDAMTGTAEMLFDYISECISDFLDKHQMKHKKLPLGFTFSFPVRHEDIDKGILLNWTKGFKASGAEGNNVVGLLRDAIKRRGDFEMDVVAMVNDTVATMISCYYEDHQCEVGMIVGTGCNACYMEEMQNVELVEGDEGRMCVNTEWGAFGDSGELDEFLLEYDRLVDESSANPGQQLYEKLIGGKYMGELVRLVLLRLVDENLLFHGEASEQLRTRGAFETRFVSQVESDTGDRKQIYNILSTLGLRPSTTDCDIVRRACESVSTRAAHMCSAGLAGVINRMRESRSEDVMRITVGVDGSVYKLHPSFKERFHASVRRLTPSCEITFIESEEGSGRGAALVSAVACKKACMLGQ
The test is described as follows: In vitro glucokinase activity (G6PDH-coupled NADH assay). Type of test: biochemical. The note with it: for SC1.5 (concentration of activator that produced a 50% increase in the activity of GK): 30° C., 5 mM D-glucose, 10% DMSO; for fold act. @ 30 μM: at 30 μM test compound. The essentials: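 GST-tagged human liver GK1 from E. coli, assayed at 30° C in 25 mM Hepes pH 7.1 with 5 mM D-glucose, 1 mM ATP, 1.8 mM NAD and G6PDH coupling, 10% DMSO final; reaction started with enzyme after 10 min preincubation. NADH formation followed at OD340; SC1.5 is activator concentration giving 50% increase over DMSO control rate.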

With `CC(C)(O)Cn1ccc(NC(=O)[C@H](CC2CCCCO2)N2CC(Oc3c(F)cccc3F)=CC2=O)n1` (stereo partly drawn) [Example 93, (S)-2-[4-(2,6-Difluoro-phenoxy)-2-oxo-2,5-dihydro-pyrrol-1-yl]-N-[1-(2-hydroxy-2-methyl-propyl)-1H-pyrazol-3-yl]-3-(tetrahydro-pyran-2-yl)-propionamide], the “SC1.5 (concentration of activator that produced a 50% increase in the activity of GK)” value was 0.477 µM. Same read-out and setting: for `CCO[C@H](C)C[C@@H](C(=O)Nc1ccn(CC(C)(C)O)n1)N1CC(Oc2cccc(Cl)c2Cl)=CC1=O` [Example 94, (2S,4R)-2-[4-(2,3-Dichloro-phenoxy)-2-oxo-2,5-dihydro-pyrrol-1-yl]-4-ethoxy-pentanoic acid [1-(2-hydroxy-2-methyl-propyl)-1H-pyrazol-3-yl]-amide] the value was 0.772 µM; for `CCO[C@@H](C)C[C@@H](C(=O)Nc1ccn(CC(C)(C)O)n1)N1CC(Oc2cccc(Cl)c2Cl)=CC1=O` [Example 95, (2S,4S)-2-[4-(2,3-Dichloro-phenoxy)-2-oxo-2,5-dihydro-pyrrol-1-yl]-4-ethoxy-pentanoic acid [1-(2-hydroxy-2-methyl-propyl)-1H-pyrazol-3-yl]-amide], 0.703 µM; for `CC(C)C[C@@H](C(=O)Nc1ccn(C[C@@H](O)CO)n1)N1CC(Oc2cccc(C(F)(F)F)c2)=CC1=O` [Example 96, (S)-4-Methyl-2-[2-oxo-4-(3-trifluoromethyl-phenoxy)-2,5-dihydro-pyrrol-1-yl]-pentanoic acid [1-((R)-2,3-dihydroxy-propyl)-1H-pyrazol-3-yl]-amide], 0.97 µM.

In the case of `CC(C)C[C@@H](C(=O)Nc1ccn(C[C@@H](O)CO)n1)N1CC(Oc2cccc(Cl)c2F)=CC1=O` [Example 97, (S)-2-[4-(3-Chloro-2-fluoro-phenoxy)-2-oxo-2,5-dihydro-pyrrol-1-yl]-4-methyl-pentanoic acid [1-((R)-2,3-dihydroxy-propyl)-1H-pyrazol-3-yl]-amide], the “SC1.5 (concentration of activator that produced a 50% increase in the activity of GK)” value is 0.168 µM. Still for that read-out and setting: the result for `CC(C)C[C@@H](C(=O)Nc1ccn(C[C@@H](O)CO)n1)N1CC(Oc2cccc3c2CCCC3)=CC1=O` [Example 98, (S)-4-Methyl-2-[2-oxo-4-(5,6,7,8-tetrahydro-naphthalen-1-yloxy)-2,5-dihydro-pyrrol-1-yl]-pentanoic acid [1-((R)-2,3-dihydroxy-propyl)-1H-pyrazol-3-yl]-amide] reads 0.212 µM.

In the case of `COc1ccc(OC2=CC(=O)N([C@@H](CC(C)C)C(=O)Nc3ccn(C[C@@H](O)CO)n3)C2)cc1` [Example 99, (S)-2-[4-(4-Methoxy-phenoxy)-2-oxo-2,5-dihydro-pyrrol-1-yl]-4-methyl-pentanoic acid [1-((R)-2,3-dihydroxy-propyl)-1H-pyrazol-3-yl]-amide], the “SC1.5 (concentration of activator that produced a 50% increase in the activity of GK)” value turned out to be 0.747 µM. Still for that read-out and setting: for `CC(C)C[C@@H](C(=O)Nc1ccn(C[C@@H](O)CO)n1)N1CC(Oc2cccc3ccccc23)=CC1=O` [Example 100, (S)-4-Methyl-2-[4-(naphthalen-1-yloxy)-2-oxo-2,5-dihydro-pyrrol-1-yl]-pentanoic acid [1-((R)-2,3-dihydroxy-propyl)-1H-pyrazol-3-yl]-amide] the value was 0.06 µM; for `CC(C)C[C@@H](C(=O)Nc1ccn(C[C@@H](O)CO)n1)N1CC(Oc2cc(F)ccc2F)=CC1=O` [Example 101, (S)-2-[4-(2,5-Difluoro-phenoxy)-2-oxo-2,5-dihydro-pyrrol-1-yl]-4-methyl-pentanoic acid [1-((R)-2,3-dihydroxy-propyl)-1H-pyrazol-3-yl]-amide], 0.33 µM; for `CC(C)C[C@@H](C(=O)Nc1ccn(C[C@@H](O)CO)n1)N1CC(Oc2ccc(F)cc2F)=CC1=O` [Example 102, (S)-2-[4-(2,4-Difluoro-phenoxy)-2-oxo-2,5-dihydro-pyrrol-1-yl]-4-methyl-pentanoic acid [1-((R)-2,3-dihydroxy-propyl)-1H-pyrazol-3-yl]-amide], 0.578 µM. Same read-out and setting: the result for `Cc1ccc(F)c(OC2=CC(=O)N([C@@H](CC(C)C)C(=O)Nc3ccn(C[C@@H](O)CO)n3)C2)c1` [Example 103, (S)-2-[4-(2-Fluoro-5-methyl-phenoxy)-2-oxo-2,5-dihydro-pyrrol-1-yl]-4-methyl-pentanoic acid [1-((R)-2,3-dihydroxy-propyl)-1H-pyrazol-3-yl]-amide] reads 0.072 µM; that for `COCCc1nsc(NC(=O)[C@H](CC(C)C)N2CC(Oc3ccccc3Cl)=CC2=O)n1` [Example 104, (S)-2-[4-(2-Chloro-phenoxy)-2-oxo-2,5-dihydro-pyrrol-1-yl]-4-methyl-pentanoic acid [3-(2-methoxy-ethyl)-[1,2,4]thiadiazol-5-yl]-amide], 1.03 µM.

On to `CC(C)C[C@@H](C(=O)Nc1nc(C2CC2)ns1)N1CC(Oc2ccccc2Cl)=CC1=O` [Example 105, (S)-2-[4-(2-Chloro-phenoxy)-2-oxo-2,5-dihydro-pyrrol-1-yl]-4-methyl-pentanoic acid (3-cyclopropyl-[1,2,4]thiadiazol-5-yl)-amide], for which the “SC1.5 (concentration of activator that produced a 50% increase in the activity of GK)” value is > 30 µM and the “fold act. @ 30 μM” value is given as 1.4 fold. On the same counts, the results for `CC(C)C[C@@H](C(=O)Nc1nc(CCC(F)(F)F)ns1)N1CC(Oc2ccccc2Cl)=CC1=O` [Example 106, (S)-2-[4-(2-Chloro-phenoxy)-2-oxo-2,5-dihydro-pyrrol-1-yl]-4-methyl-pentanoic acid [3-(3,3,3-trifluoro-propyl)-[1,2,4]thiadiazol-5-yl]-amide] are ~30 µM and 1.5 fold. On the same counts, the results for `Cc1nsc(NC(=O)[C@H](CC(C)C)N2CC(Oc3ccccc3Cl)=CC2=O)n1` [Example 107, (S)-2-[4-(2-Chloro-phenoxy)-2-oxo-2,5-dihydro-pyrrol-1-yl]-4-methyl-pentanoic acid (3-methyl-[1,2,4]thiadiazol-5-yl)-amide] are > 30 µM and 1.4 fold. In the case of `CC(C)C[C@@H](C(=O)Nc1nc(N(C)C)ns1)N1CC(Oc2ccccc2Cl)=CC1=O` [Example 108, (S)-2-[4-(2-Chloro-phenoxy)-2-oxo-2,5-dihydro-pyrrol-1-yl]-4-methyl-pentanoic acid (3-dimethylamino-[1,2,4]thiadiazol-5-yl)-amide], the “SC1.5 (concentration of activator that produced a 50% increase in the activity of GK)” value is > 30 µM and the “fold act. @ 30 μM” value came to 1.4 fold. In the same order, the values of `COc1ccc(Cc2nsc(NC(=O)[C@H](CC(C)C)N3CC(Oc4ccccc4Cl)=CC3=O)n2)cc1` [Example 109, (S)-2-[4-(2-Chloro-phenoxy)-2-oxo-2,5-dihydro-pyrrol-1-yl]-4-methyl-pentanoic acid [3-(4-methoxy-benzyl)-[1,2,4]thiadiazol-5-yl]-amide] are > 30 µM and 1.3 fold.
